Data published in patent US5130323A, “Pyrrolidine derivatives” (Fujisawa Pharmaceutical Co., Ltd., priority 1988, dated 1992).

What was measured:
[1] = biological target: T1, TXA2 synthetase (Homo sapiens, UniProt P24557); assay: Inhibition of TXA2 synthetase; type: biochemical; conditions: aspirin treated human platelet microsome, PGH2 as substrate, 25° C., TXB2 measured by radioimmunoassay; read-out: IC50 (Inhibition concentration of TXB2 generation by 50%)
T1 construct: human platelet microsome; purchased Ran Biochem, Israel; host or cells: human platelet microsomes, aspirin treated (APM)
T1 sequence (P24557 1-533): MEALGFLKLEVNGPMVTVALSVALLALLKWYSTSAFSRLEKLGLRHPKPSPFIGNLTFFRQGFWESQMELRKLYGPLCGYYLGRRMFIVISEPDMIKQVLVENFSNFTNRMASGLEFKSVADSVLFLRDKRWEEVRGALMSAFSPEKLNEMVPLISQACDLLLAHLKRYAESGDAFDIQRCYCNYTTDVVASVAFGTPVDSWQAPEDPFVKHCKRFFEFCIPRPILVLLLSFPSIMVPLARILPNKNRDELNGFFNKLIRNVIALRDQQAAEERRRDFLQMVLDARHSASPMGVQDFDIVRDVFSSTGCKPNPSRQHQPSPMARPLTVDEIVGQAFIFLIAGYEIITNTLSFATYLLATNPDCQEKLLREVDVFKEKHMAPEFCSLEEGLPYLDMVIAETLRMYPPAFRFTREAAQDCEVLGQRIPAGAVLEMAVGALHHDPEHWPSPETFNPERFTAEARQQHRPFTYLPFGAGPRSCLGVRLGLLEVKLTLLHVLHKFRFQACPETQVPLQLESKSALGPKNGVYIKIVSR
Experimental: Aspirin treated human platelet microsome APM, Ran Biochem, Israel) was used as a source of TXA2 synthetase. APM was suspended in 50 mM Tris/100 mM NaCl buffer (pH 7.5). 10 μl of test compound solution was added to 90 μl of APM suspension and incubated at 25° C. for 3 min. And then, 2 μl of PGH2 (10 μg/ml in aceton, Ran Biochem.) was added. After 3-min incubation period, the reaction was terminated by adding 10 μl of FeCl2 solution (25 mM in H2 O), and set aside at room temperature for 15 min and then on ice. The reaction mixture was centrifuged at 10000 rpm for 5 min at 4° C. TXB2 in the supernatant was measured by radioimmunoassay. IC50 (Inhibition concentration of TXB2 generation by 50%) were graphically determined.

[2] = test system: human platelet aggregation induced by U46619; assay: Inhibition of human platelet aggregation induced by U46619; type: cell-based; conditions: human platelet rich plasma, U46619 final 1.0 μM, 37° C.; read-out: IC50 (Inhibition concentration of platelet aggregation by 50%)
Experimental: In the following test, the used 9,11-methanoepoxy PGH2 (U46619) is characterized pharmacologically as TXA2 mimetic agent and widely used for evaluating TXA2 antagonism of test compounds (for example, vide The Journal of Pharmacology and Experimental Therapeutics Vol. 234, pp 435-441).
Human blood was obtained from healthy male volunteers and mixed with 3.8% (w/v) sodium citrate in a ratio of 9:1. Platelet rich plasma (PRP) was prepared from the citrated blood by centrifugation at 150×g for 15 min. Platelet aggregation in PRP was studied photometrically using an aggregometer (NKK HAEMATRACER 1 . To the 225 μl of PRP, 25 μl of test compound solution was added, and then stirred at 1000 rpm for 2 min at 37° C. To the solution, 5 μl of U46619 (final 1.0 μM) was added as an aggregating inducer. IC50 (Inhibition concentration of platelet aggregation by 50% were determined graphically.

## O=C(O)CCC/C=C\[C@@H]1C[C@@H](NS(=O)(=O)c2ccc(Cl)cc2)CN1Cc1cccnc1 [test compound (1), (2S,4R)-2-[(Z)-5-Carboxy-1-pentenyl]-4-(4-chlorophenylsulfonylamino)-1-(3-pyridylmethyl)pyrrolidine]
[1]
  IC50: 46 nM
[2]
  IC50: 270 nM
